Test results as given in ChEMBL document CHEMBL1201862, “PubChem BioAssay data set” (2004).
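48-hour exposure; five concentrations; linearly interpolated endpoints. GI50: concentration for 50% inhibition of growth.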 Calls of active or inactive are those of the source. No stated cut-off is given here; in the data, active = GI50 up to about 1.1 µM and inactive = higher.

Assays:
Assay in all cases: NCI-60 cell line screen, 48 h
[1] = system: NCI-H522
[2] = system: UACC-257
[3] = system: OVCAR-5
[4] = system: A498
[5] = system: LOX IMVI
[6] = system: SK-MEL-2
[7] = system: M14
[8] = system: CCRF-CEM
[9] = system: NCI-H226
[10] = system: IGROV-1
[11] = system: Hs-578T
[12] = system: HOP-62
[13] = system: HCT-15
[14] = system: HCT-116
[15] = system: BT-549
[16] = system: RPMI-8226
[17] = system: OVCAR-8
[18] = system: PC-3
[19] = system: MDA-MB-435
[20] = system: OVCAR-4
[21] = system: SN12C
[22] = system: HT-29
[23] = system: TK-10
[24] = system: CAKI-1
[25] = system: SF-268
[26] = system: MCF7
[27] = system: UO-31
[28] = system: UACC-62
[29] = system: NCI-H23
[30] = system: EKVX
[31] = system: ACHN
[32] = system: HL-60
[33] = system: RXF 393
[34] = system: SK-MEL-28
[35] = system: SNB-75
[36] = system: SNB-19
[37] = system: MDA-N
[38] = system: K562
[39] = system: OVCAR-3
[40] = system: SR
[41] = system: MOLT-4
[42] = system: Malme-3M
[43] = system: SF-539
[44] = system: SW-620
[45] = system: A549
[46] = system: NCI/ADR-RES
[47] = system: KM12
[48] = system: SF-295
[49] = system: HOP-92
[50] = system: NCI-H460
[51] = system: U-251
[52] = system: SK-OV-3
[53] = system: 786-0
[54] = system: HCC 2998
[55] = system: SK-MEL-5
[56] = system: MDA-MB-231
[57] = system: COLO 205
[58] = system: DU-145
[59] = system: T47D

## Cc1cc2c(cc1C)[n+]([O-])c(NCCCN(C)C)c(C#N)[n+]2[O-]
[1]
  GI50: 57.4 µM (inactive)
[2]
  GI50: > 100 µM (inactive)
[3]
  GI50: > 100 µM (inactive)
[4]
  GI50: > 100 µM (inactive)
[5]
  GI50: > 100 µM (inactive)
[6]
  GI50: > 100 µM (inactive)
[7]
  GI50: > 100 µM (inactive)
[8]
  GI50: 57.3 µM (inactive)
[9]
  GI50: 67 µM (inactive)
[10]
  GI50: 35.5 µM (inactive)
[11]
  GI50: > 100 µM (inactive)
[12]
  GI50: > 100 µM (inactive)
[13]
  GI50: 75.2 µM
[14]
  GI50: 73.3 µM (inactive)
[15]
  GI50: 79.1 µM (inactive)
[16]
  GI50: 16.1 µM (inactive)
[17]
  GI50: > 100 µM (inactive)
[18]
  GI50: > 100 µM (inactive)
[19]
  GI50: > 100 µM (inactive)
[20]
  GI50: > 100 µM (inactive)
[21]
  GI50: 82.4 µM (inactive)
[22]
  GI50: 61.5 µM (inactive)
[23]
  GI50: > 100 µM (inactive)
[24]
  GI50: 72.1 µM (inactive)
[25]
  GI50: > 100 µM (inactive)
[26]
  GI50: > 100 µM (inactive)
[27]
  GI50: > 100 µM (inactive)
[28]
  GI50: 76.4 µM (inactive)
[29]
  GI50: 80.9 µM (inactive)
[30]
  GI50: 68.5 µM (inactive)
[31]
  GI50: > 100 µM (inactive)
[32]
  GI50: 45.3 µM (inactive)
[33]
  GI50: > 100 µM (inactive)
[34]
  GI50: > 100 µM (inactive)
[35]
  GI50: 85.7 µM (inactive)
[36]
  GI50: > 100 µM (inactive)
[37]
  GI50: > 100 µM (inactive)
[38]
  GI50: 37.5 µM (inactive)
[39]
  GI50: 76.4 µM (inactive)
[40]
  GI50: 13.2 µM (inactive)
[41]
  GI50: 22.7 µM (inactive)
[42]
  GI50: 95.1 µM (inactive)
[43]
  GI50: > 100 µM (inactive)
[44]
  GI50: > 100 µM (inactive)
[45]
  GI50: > 100 µM (inactive)
[46]
  GI50: 85.1 µM (inactive)
[47]
  GI50: > 100 µM (inactive)
[48]
  GI50: 42 µM (inactive)
[49]
  GI50: > 100 µM (inactive)
[50]
  GI50: 26.2 µM (inactive)
[51]
  GI50: > 100 µM (inactive)
[52]
  GI50: 81.5 µM (inactive)
[53]
  GI50: > 100 µM (inactive)
[54]
  GI50: 88.3 µM (inactive)

## N#CC(=S)Nc1cccc(Cl)c1
[55]
  GI50: 4.11 µM (inactive)
[2]
  GI50: 37.2 µM (inactive)
[3]
  GI50: 28.5 µM (inactive)
[4]
  GI50: 34.1 µM (inactive)
[5]
  GI50: 39.3 µM (inactive)
[6]
  GI50: 26.5 µM (inactive)
[7]
  GI50: 27.5 µM (inactive)
[8]
  GI50: 30 µM (inactive)
[9]
  GI50: 23.9 µM (inactive)
[10]
  GI50: 5.13 µM (inactive)
[12]
  GI50: 43.8 µM (inactive)
[13]
  GI50: 27.9 µM
[14]
  GI50: 55.3 µM (inactive)
[15]
  GI50: 35.5 µM (inactive)
[16]
  GI50: 5.38 µM (inactive)
[17]
  GI50: 32.3 µM (inactive)
[18]
  GI50: 32.7 µM (inactive)
[56]
  GI50: 38.4 µM (inactive)
[19]
  GI50: 33.1 µM (inactive)
[20]
  GI50: 42.4 µM (inactive)
[21]
  GI50: 44.1 µM (inactive)
[22]
  GI50: 19.5 µM (inactive)
[23]
  GI50: 35.4 µM (inactive)
[24]
  GI50: 41.9 µM (inactive)
[25]
  GI50: 40.5 µM (inactive)
[26]
  GI50: 46.8 µM (inactive)
[28]
  GI50: 19 µM (inactive)
[29]
  GI50: 31.4 µM (inactive)
[30]
  GI50: 41.1 µM (inactive)
[31]
  GI50: 26.2 µM (inactive)
[32]
  GI50: 33.2 µM (inactive)
[33]
  GI50: 26 µM (inactive)
[34]
  GI50: 44.7 µM (inactive)
[35]
  GI50: 23.9 µM (inactive)
[36]
  GI50: 54.5 µM (inactive)
[37]
  GI50: 44.3 µM (inactive)
[38]
  GI50: 19.5 µM (inactive)
[39]
  GI50: 16 µM (inactive)
[57]
  GI50: 36.1 µM (inactive)
[41]
  GI50: 34 µM (inactive)
[42]
  GI50: 30.3 µM (inactive)
[43]
  GI50: 25.9 µM (inactive)
[58]
  GI50: 50.8 µM (inactive)
[44]
  GI50: 53.2 µM (inactive)
[45]
  GI50: 23.8 µM (inactive)
[46]
  GI50: 30.7 µM (inactive)
[47]
  GI50: 24.8 µM (inactive)
[48]
  GI50: 23.8 µM (inactive)
[49]
  GI50: 35.6 µM (inactive)
[59]
  GI50: 27.2 µM (inactive)
[50]
  GI50: 19.9 µM (inactive)
[51]
  GI50: 34.8 µM (inactive)
[52]
  GI50: 33.3 µM (inactive)
[53]
  GI50: 40.5 µM (inactive)
[54]
  GI50: 28.8 µM (inactive)
